Patent US11459337B2, “Isothiazolo[5,4-D]pyrimidine compound as IRAK4 inhibitor” (priority 2018, dated 2022)
Read-outs that look alike come from different tables or passages of the source.

Assays:
human IRAK4 = human IRAK4 (Homo sapiens (Human), UniProt Q9NWZ3); test: 33P-labeled kinase activity assay (Reaction Biology Corp), in vitro enzymatic activity; format: biochemical; conditions: 20 μM ATP, 3 nM kinase, MBP substrate
Experimental: The inhibitory activity of the test compounds against human IRAK4 was evaluated by measuring IC50 values in a ^33P-labeled kinase activity assay (Reaction Biology Corp). Buffer conditions: 20 mM Hepes (pH 7.5), 10 mM MgCl2, 1 mM EGTA, 0.02% Brij35, 0.02 mg/mL BSA, 0.1 mM Na3VO4, 2 mM DTT, 1% DMSO. Procedures: The test compound was dissolved in DMSO at room temperature to prepare a 10 mM solution for later use. The substrate was dissolved in fresh buffer, to which the kinase was added and mixed well. The DMSO solution containing the test compound was added to the above mixed reaction system by an acoustic technique (Echo 550). The concentrations of the compounds in reaction system were 10 μM, 3.33 μM, 1.11 μM, 0.370 μM, 0.123 μM, 41.2 nM, 13.7 nM, 4.57 nM, 1.52 nM, and 0.508 nM. After 15 minutes of incubation, the reaction was started by adding ^33P-ATP (activity: 0.01 μCi/μL; the corresponding concentration is listed in Table 1). Supplier's catalog number, lot number and concentration information in the reaction system for IRAK4 and its substrate are listed in Table 1. After 120 minutes of reaction at room temperature, the resulting solution was loaded on P81 ion exchange chromatography paper sheet (Whatman #3698-915). After repeated washing with 0.75% phosphoric acid solution, the radioactivity of the phosphorylated substrate residue on the paper sheet was measured. The kinase activity data are shown as a comparison of the kinase activity of the test compound and the kinase activity of the blank (DMSO only) and a curve was fitted using Prism4 software (GraphPad) to give IC50 values, with the experimental results shown in Table 2. [table]

[1] = Pharmacokinetic study of oral and intravenous test compounds in SD rats; format: in vivo; conditions: rat, plasma, SD male rats; for AUC(0-t): read-out: Area under plasma concentration-time curve AUC0-last
Experimental: Pharmacokinetic Study of Oral and Intravenous Test Compounds in SD Rats The test compound was mixed with a solution containing 10% of methyl pyrrolidone, 10% of polyethylene glycol stearate and 80% of water. The mixture was vortexed and sonicated to prepare a 1.5 mg/mL clarified solution, which was then filtered through a microporous membrane for later use. SD male rats aged 7 to 10 weeks were selected and administered intravenously with a dose of the candidate compound at 3 mg/kg. The test compound was mixed with 0.5% aqueous methylcellulose solution. The mixture was vortexed and sonicated to prepare a 2 mg/mL suspension for later use. SD male rats aged 7 to 10 weeks were selected and orally administered with a dose of the candidate compound at 10 mg/kg. Whole blood was collected at certain time points, and plasma was separated. The drug concentration was measured by LC-MS/MS, and pharmacokinetic parameters were calculated using Phoenix WinNonlin software (Pharsight, USA).

Chain of human IRAK4 (Q9NWZ3 whole entry): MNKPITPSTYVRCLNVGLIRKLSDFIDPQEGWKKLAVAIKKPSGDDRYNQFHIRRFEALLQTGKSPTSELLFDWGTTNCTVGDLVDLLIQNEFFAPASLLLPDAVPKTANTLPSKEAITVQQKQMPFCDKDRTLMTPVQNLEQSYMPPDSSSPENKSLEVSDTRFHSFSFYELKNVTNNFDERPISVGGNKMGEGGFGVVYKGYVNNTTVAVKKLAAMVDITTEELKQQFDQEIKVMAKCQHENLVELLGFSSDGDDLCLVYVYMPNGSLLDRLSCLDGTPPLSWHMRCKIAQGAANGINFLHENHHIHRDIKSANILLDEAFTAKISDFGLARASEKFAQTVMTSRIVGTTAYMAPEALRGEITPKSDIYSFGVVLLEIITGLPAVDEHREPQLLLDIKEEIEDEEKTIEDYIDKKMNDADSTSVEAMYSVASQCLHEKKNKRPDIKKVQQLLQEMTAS

Row | IC50 (human IRAK4) [nM] | Structure (SMILES) | other results
1 | 45.9 | Cc1nsc2nc(Nc3cnn(CCO)c3)nc(N[C@H]3CC[C@H](N4CCOCC4)CC3)c12 [WX010] | –
2 | 357 | Cc1nsc2nc(Nc3cnn(CC(=O)O)c3)nc(N[C@H]3CC[C@H](N4CCOCC4)CC3)c12 [WX011] | –
3 | 23.6 | Cc1nsc2nc(Nc3cnn(C4CCOCC4)c3)nc(N[C@H]3CC[C@H](N4CCNCC4)CC3)c12 [WX025] | –
4 | 15.2 | COC(=O)N1CCN([C@H]2CC[C@H](Nc3nc(Nc4cnn(C5CCOC5)c4)nc4snc(C)c34)CC2)CC1 (some centres unmarked) [WX032] | –
5 | 12.8 | COC(=O)N1CCN([C@H]2CC[C@H](Nc3nc(Nc4cnn([C@@H]5CCOC5)c4)nc4snc(C)c34)CC2)CC1 [WX033] | –
6 | 12.8 | COC(=O)N1CCN([C@H]2CC[C@H](Nc3nc(Nc4cnn([C@H]5CCOC5)c4)nc4snc(C)c34)CC2)CC1 [WX034] | –
7 | 10.7 | COC(=O)N1CCN([C@H]2CC[C@H](Nc3nc(Nc4cnn(C)c4)nc4snc(C)c34)CC2)CC1 [WX035] | –
8 | 460 | Cc1nsc2nc(Nc3cnn(C4CCOCC4)c3)nc(N[C@H]3CC[C@H](N4CCNC(=O)C4)CC3)c12 [WX048] | –
9 | 1.8 | Cc1nsc2nc(Nc3cnn(C4CCOCC4)c3)nc(N[C@H]3CC[C@H](N4CCC(O)CC4)CC3)c12 [WX052] | –
10 | 17 | O=C(O)Cc1nsc2nc(Nc3cnn(C4CCOCC4)c3)nc(N[C@H]3CC[C@H](N4CCOCC4)CC3)c12 [WX056] | –
11 | 5 | Cc1nsc2nc(Nc3cnn(C4CCOCC4)c3)nc(N[C@H]3CC[C@H](N4CCC(C(=O)O)CC4)CC3)c12 [WX057] | –
12 | 7.3 | Cc1nsc2nc(Nc3cnn(C4CCOCC4)c3)nc(N[C@H]3CC[C@H](N4CC(O)C4)CC3)c12 [WX060] | –

The next lines start with the molecule.

Row | Structure (SMILES) | IC50 (human IRAK4) [nM] | other results
13 | Cc1nsc2nc(Nc3cnn(C4CCOCC4)c3)nc(O[C@H]3CC[C@H](N4CCOCC4)CC3)c12 [WX002] | 89.5 | –
14 | Cn1cc(Nc2nc(N[C@H]3CC[C@H](N4CCOCC4)CC3)c3c(C4CCOCC4)nsc3n2)cn1 [WX005] | 8.7 | –
15 | Cc1nsc2nc(Nc3cnn(C4CCOCC4)c3)nc(N(C)[C@H]3CC[C@H](N4CCOCC4)CC3)c12 [WX013] | 60.1 | –
16 | Cc1nsc2nc(Nc3cnn(C4CCOCC4)c3)nc(N[C@H]3CC[C@H](N4CCN(C(C)C)CC4)CC3)c12 [WX029] | 3.8 | –
17 | Cc1nsc2nc(Nc3cnn(C4CCOCC4)c3)nc(N[C@H]3CC[C@H](N4CC5CC(C4)N5)CC3)c12 [WX040] | 30 | –
18 | Cc1nsc2nc(Nc3cnn(C4CCOCC4)c3)nc(N[C@H]3CC[C@H](N4CC5CC(C4)N5C)CC3)c12 [WX041] | 21.4 | –
19 | CC(=O)N1C2CC1CN([C@H]1CC[C@H](Nc3nc(Nc4cnn(C5CCOCC5)c4)nc4snc(C)c34)CC1)C2 [WX043] | 12.2 | –
20 | Cc1nsc2nc(Nc3cnn(C4CCOCC4)c3)nc(N[C@H]3CC[C@H](N4C[C@H]5C[C@@H]4CN5C)CC3)c12 [WX045] | 278 | –
21 | Cc1nsc2nc(Nc3cnn(C4CCOCC4)c3)nc(N[C@H]3CC[C@H](N4CCNCC4C)CC3)c12 (some centres unmarked) [WX051] | 13.7 | –
22 | Cc1nsc2nc(Nc3cnn(C4CCOCC4)c3)nc(N[C@H]3CC[C@H](N4CCOCC4=O)CC3)c12 [WX054] | 363 | –
23 | Cc1nsc2nc(Nc3cnn(C4CCOCC4)c3)nc(N[C@H]3CC[C@H](N4CCC(N(C)C)CC4)CC3)c12 [WX058] | 2.1 | –
24 | COC(=O)N1CCN([C@H]2CC[C@H](Nc3nc(Nc4cnn(C5CCC(F)(F)CC5)c4)nc4snc(C)c34)CC2)CC1 [WX059] | 1.1 | –
25 | NC(=O)C[C@H]1CCc2sc3ncnc(O[C@H]4CC[C@H](N5CCOCC5)CC4)c3c21 [WXR2, ND-2110, reference compound] | – | Vd ([1]; Intravenous, 3 mg/kg, read-out: Apparent volume of distribution Vdss): 1.6 L/kg; AUC(0-t) ([1]; Intravenous, 3 mg/kg): 3.68 µM·h; clearance ([1]; Intravenous, 3 mg/kg, read-out: Clearance CL): 33.2 mL/min/kg; half-life ([1]; Intravenous, 3 mg/kg, read-out: Half life T1/2 (converted)): 78 min; AUC(0-t) ([1]; Oral, 10 mg/kg): 2.13 µM·h; bioavailability ([1]; Oral, 10 mg/kg, read-out: Bioavailability F): 18%; Cmax ([1]; Oral, 10 mg/kg, read-out: Peak concentration Cmax): 893 nM; Tmax ([1]; Oral, 10 mg/kg, read-out: Time to peak Tmax): 36 min
